{"source": "patent US20260376311A1", "about": "“Subject selection for 11B-HSD1 inhibitor treatment” (ACTINOGEN MEDICAL LIMITED, priority 2022, published 2026)", "key": {"pTau181": {"tested_on": "pTau181", "assay": "Biomarker analysis of plasma pTau181, Biomarker Extension Study", "assay_type": "in vivo, human", "conditions": "10 mg QD", "experimental": "(§1) A Non-interventional Biomarker Analysis Extension Protocol study was conducted for Participants who were previously enrolled in the above described Phase II, Double-Blind, 12-Week, Randomised, Placebo-Controlled Study to Assess the Safety, Tolerability and Efficacy of Xanamem™ in Subjects with Mild Dementia due to Alzheimer's Disease (AD). The objectives for study were: • 1. To analyze the levels of biomarkers of Alzheimer's Disease (AD) proteins, neurodegeneration, and neuro-inflammation in stored plasma samples from participants with mild dementia due to AD enrolled in the previous clinical trial (at baseline and Week 12 and their change from baseline for each treatment) • 2. To examine the change from baseline in biomarkers by treatment group to Week 12 by baseline pTau181 quartile categorization/level • 3. To explore the efficacy of Xanamem in relationship to quartiles categorization/level of pTau181 levels at baseline • 4. To correlate the changes from baseline in biomarkers by treatment with changes in cognitive endpoints\n(§2) From above described clinical study, the extant blood samples of 72 patients were subjected to further disease biomarker analysis. A biomarker laboratory (blinded to treatment assignment), analyzed those blood samples to determine the biomarker variable pTau181.\n(§3) For the biomarker p-Tau181, change from baseline to Week 12 were analyzed by ANCOVA with the following models: • treatment as fixed effect and baseline biomarker value as covariate; • treatment, baseline p-Tau181 (low/high) category, and treatment-by-baseline p-Tau181 (low/high) category as fixed effects, and baseline biomarker value as covariate; • treatment, baseline p-Tau181 (≤10.2 pg/mL/>10.2 pg/mL) category, and treatment-by-baseline p-Tau181 (≤10.2 pg/mL/>10.2 pg/mL) category as fixed effects, and baseline biomarker value as covariate; and • treatment, baseline MMSE (less severe (≥24)/more severe (≤23)) category, and treatment-by-baseline MMSE (less severe (≥24)/more severe (≤23)) category as fixed effects, and baseline biomarker value as covariate."}, "[1]": {"assay": "Safety of drug intake when fasted", "assay_type": "in vivo, human", "conditions": "oral, in words"}, "[2]": {"assay": "Clinical Dementia Rating Scale-Sum of Boxes (CDR-SB), Phase II placebo-controlled study, Biomarker Extension Study", "assay_type": "in vivo, human", "conditions": "12 weeks", "experimental": "(§4) A Phase II, Double-Blind, 12-Week, Randomised, Placebo-Controlled Study was conducted to Assess the Safety, Tolerability and Efficacy of Xanamem™ in Subjects with Mild Dementia due to Alzheimer's Disease (AD).\n(§5) Study Design: This is a Phase II, randomized, multi-centre, double-blind, placebo-controlled, proof-of-concept study to assess the safety, tolerability and efficacy of oral Xanamem™ QD in adult subjects with mild dementia due to AD.\n(§6) At the Baseline visit (Week 0), eligible subjects will be randomised on a 1:1 ratio to receive either 10 mg Xanamem™ administered orally, QD (treatment group) or matching placebo (placebo group). Subjects returned to the study site for the Interim visits (Week 4 and Week 8), EOT (Week 12) and Follow-up (4 weeks post last dose of study drug) visits, at which study assessments were performed.\n(§7) Xanamem™ is formulated in green and cream-coloured size 3, Coni-Snap shaped gelatin capsules as an excipient blend at a dose of 10 mg (see Table 1). The dose of Xanamen™ will be 10 mg administered orally, QD.\nThe Washington University CDR is a global assessment instrument that yields global and SOB scores, with the global score regularly used in clinical and research settings to stage dementia severity. The CDR-SOB score has been considered a more detailed quantitative general index than the global score and provides more information than the global CDR score in participants with mild dementia. CDR Global results are relevant for subject eligibility and thus will also be performed at the Screening visit.\nThe CDR is obtained through semi-structured interviews of patients and informants, and cognitive functioning is rated in six domains of functioning: memory, orientation, judgement and problem solving, community affairs, home and hobbies, and personal care. Each domain is rated on a five-point scale of functioning as follows: 0, no impairment; 0.5, questionable impairment; 1, mild impairment; 2, moderate impairment; and 3, severe impairment.\nThe global CDR score is computed via an algorithm. CDR Global score is calculated using the Washington University online algorithm. The CDR-SOB is based on summing each of the domain box scores, with scores ranging from 0-18.\nas §1\nFrom above described clinical study, the extant blood samples of 72 patients were subjected to further disease biomarker analysis. A biomarker laboratory (blinded to treatment assignment), analyzed those blood samples to determine the biomarker variable pTau181. […]"}, "[3]": {"assay": "Mini-Mental Status Examination (MMSE), Phase II placebo-controlled study, Biomarker Extension Study", "assay_type": "in vivo, human", "experimental": "as §4, §5, §6, §7\nThe MMSE is a 30-point questionnaire that is used extensively in clinical and research settings to measure cognitive impairment and is commonly used in medicine and allied health to screen for dementia. It is also used to estimate the severity and progression of cognitive impairment and to follow the course of cognitive changes in an individual over time; thus making it an effective way to document a participant's response to treatment. For this study, MMSE results are relevant for subject eligibility and performed at Screening visit.\nas §1, §2\nAn analysis of overall efficacy was undertaken of the population (n=72).\nas §3, with “cognitive efficacy variables (CDR-SB and MMSE),” for “biomarker p-Tau181,”, “was” for “were”, “cognitive efficacy” for “biomarker”"}, "[4]": {"assay": "Pharmacokinetics of Xanamem (Phase I peak concentrations; fed/fasted bioavailability)", "assay_type": "in vivo, human", "conditions": "oral; with meals vs fasted; in words"}, "[5]": {"conditions": "comparison with Xanamem treatment effect; cited from earlier work"}, "[6]": {"conditions": "baseline to Week 12, sample size 28 and 26"}, "[7]": {"conditions": "10 mg QD oral, pTau >6.74 pg/mL subgroup, N = 34"}, "[8]": {"conditions": "10 mg QD oral, pTau > 10.2 pg/mL, N = 9"}, "[9]": {"conditions": "10 mg QD oral, pTau ≤ 10.2 pg/mL, N = 59"}, "[10]": {"conditions": "Xanamem vs placebo, pTau>6.74 pg/mL subgroup, 10 mg QD"}, "[11]": {"conditions": "10 mg QD oral, 12 weeks, baseline MMSE 20-23, N = 46"}, "[12]": {"conditions": "10 mg QD oral, 12 weeks, baseline MMSE 24-26, N = 26"}}}
{"smiles": "O=C(c1csc(-c2cn[nH]c2)c1)N1[C@@H]2CC[C@H]1C[C@](O)(c1ncccn1)C2", "note": "[Xanamem, (5-(1H-Pyrazol-4-yl)thiophen-3-yl)(3-hydroxy-3-(pyrimidin-2-yl)-8-azabicyclo[3.2.1]octan-8-yl)methanone]", "values": [{"measurement": "change in biomarker pTau181 from baseline to Week 12", "setting": "pTau181; sample size 28 (Xanamem) and 26 (placebo), placebo −8.59", "result": "−2.37"}, {"measurement": "treatment trend in change of pTau181", "setting": "pTau181; baseline to Week 12, in words", "result": "no treatment trend was observed"}, {"measurement": "Cohen's d for change in pTau181, Xanamem vs placebo", "setting": "pTau181; [6]", "result": 0.08}, {"measurement": "p for change in pTau181, Xanamem vs placebo", "setting": "pTau181; [6]", "result": 0.40}, {"measurement": "safety of drug intake when fasted", "setting": "[1]", "result": "no safety concern"}, {"measurement": "CDR-SB change, pTau pg/mL > 10.2 (median)", "setting": "[2]; 10 mg QD oral, N = 9, desired change down, placebo 0.5", "result": "−0.3"}, {"measurement": "CDR-SB change, pTau pg/mL > 10.2 (mean)", "setting": "[2]; 10 mg QD oral, N = 9, desired change down, placebo 0.8", "result": 0.1}, {"measurement": "CDR-SB change, pTau units ≤ 6.74 (median)", "setting": "[2]; 10 mg QD oral, N = 34, desired change down, placebo 0.0", "result": 0.0}, {"measurement": "CDR-SB change, pTau > 6.74 pg/mL (median)", "setting": "[2]; 10 mg QD oral, N = 34, desired change down, placebo 0.8", "result": 0.0}, {"measurement": "CDR-SB change, pTau > 6.74 pg/mL (mean)", "setting": "[2]; 10 mg QD oral, N = 34, desired change down, placebo 1.0", "result": 0.4}, {"measurement": "CDR-SB change, pTau units ≤ 6.74 (mean)", "setting": "[2]; 10 mg QD oral, N = 34, desired change down, placebo −0.1", "result": 0.5}, {"measurement": "CDR-SB change, pTau ≤ 10.2 pg/mL (median)", "setting": "[2]; 10 mg QD oral, N = 59, desired change down, placebo 0.0", "result": 0.0}, {"measurement": "CDR-SB change, pTau ≤ 10.2 pg/mL (mean)", "setting": "[2]; 10 mg QD oral, N = 59, desired change down, placebo 0.4", "result": 0.5}, {"measurement": "Cohen's d for CDR-SB (mean), Xanamem vs placebo", "setting": "[2]; [7]", "result": 0.41}, {"measurement": "p value for CDR-SB (mean), Xanamem vs placebo", "setting": "[2]; [7]", "result": 0.09}, {"measurement": "CDR-SB units (median), change", "setting": "[2]; 10 mg QD oral, pTau >6.74 pg/mL subgroup, Xanamem n = 16, desired change down, placebo 0.8", "result": 0.0, "unit": "CDR-SB units"}, {"measurement": "CDR-SB units (mean), change", "setting": "[2]; 10 mg QD oral, pTau >6.74 pg/mL subgroup, Xanamem n = 16, desired change down, placebo 1.0", "result": 0.4, "unit": "CDR-SB units"}, {"measurement": "Cohen's d for CDR-SB (mean), Xanamem vs placebo", "setting": "[2]; [8]", "result": 0.62}, {"measurement": "p value for CDR-SB (mean), Xanamem vs placebo", "setting": "[2]; [8]", "result": 0.33}, {"measurement": "Cohen's d for CDR-SB (mean), Xanamem vs placebo", "setting": "[2]; 10 mg QD oral, pTau units ≤ 6.74, N = 34", "result": 0.40}, {"measurement": "p value for CDR-SB (mean), Xanamem vs placebo", "setting": "[2]; 10 mg QD oral, pTau ≤ 6.74 pg/mL, N = 34", "result": 0.08}, {"measurement": "Cohen's d for CDR-SB (mean), Xanamem vs placebo", "setting": "[2]; [9]", "result": "−0.06"}, {"measurement": "p value for CDR-SB (mean), Xanamem vs placebo", "setting": "[2]; [9]", "result": 0.78}, {"measurement": "treatment effect on CDR-SB, mean", "setting": "[2]; [10]", "result": 0.6, "unit": "points"}, {"measurement": "treatment effect on CDR-SB, median", "setting": "[2]; [10]", "result": 0.8, "unit": "points"}, {"measurement": "Cohen's d for MMSE (mean), Xanamem vs placebo", "setting": "[3]; [11]", "result": 0.93}, {"measurement": "p value for MMSE (mean), Xanamem vs placebo", "setting": "[3]; [11]", "result": 0.02}, {"measurement": "MMSE change, MMSE 20-23 (mean)", "setting": "[3]; 10 mg QD oral, 12 weeks, baseline MMSE 20-23, N = 46, desired change up, placebo −0.3", "result": 1.7}, {"measurement": "MMSE change, MMSE 20-23 (median)", "setting": "[3]; 10 mg QD oral, 12 weeks, baseline MMSE 20-23, N = 46, desired change up, placebo −1.0", "result": 2.0}, {"measurement": "Cohen's d for MMSE (mean), Xanamem vs placebo", "setting": "[3]; [12]", "result": "−0.17"}, {"measurement": "p value for MMSE (mean), Xanamem vs placebo", "setting": "[3]; [12]", "result": 0.88}, {"measurement": "MMSE change, MMSE 24-26 (median)", "setting": "[3]; 10 mg QD oral, 12 weeks, baseline MMSE 24-26, N = 26, desired change up, placebo −1.0", "result": "−1.0"}, {"measurement": "MMSE change, MMSE 24-26 (mean)", "setting": "[3]; 10 mg QD oral, 12 weeks, baseline MMSE 24-26, N = 26, desired change up, placebo −1.4", "result": "−1.5"}, {"measurement": "Cohen's d for MMSE, Xanamem over placebo", "setting": "[3]; overall population n=72, 10 mg QD", "result": 0.35}, {"measurement": "increase in the mean MMSE score", "setting": "[3]; overall population n=72, Xanamem n=37, 10 mg QD, placebo (n=35) decrease of 0.6", "result": 0.3}, {"measurement": "bioavailability in fed state", "setting": "[4]", "result": "higher bioavailability observed when taken in a fed state"}]}
{"smiles": "CC12CC3CC(C)(C1)CC(N)(C3)C2", "note": "[memantine]", "values": [{"measurement": "Cohen's d of approved oral anticholinesterases or memantine", "setting": "[5]", "result": "0.2-0.3"}]}
